# From PubChem BioAssay (NCI)
#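 Following 48 hours of exposure in 96-well plates, responses at five concentrations were used to interpolate endpoints linearly. At the GI50, growth is halved. The concentration for full growth arrest is given as TGI.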
# Key:
# Assay in all cases: NCI anticancer screen, dose series, 48 h
# 786-0 renal = test system: 786-0 renal
# A498 renal = test system: A498 renal
# A549 NSCLC = test system: A549 NSCLC
# ACHN renal = test system: ACHN renal
# BT-549 breast = test system: BT-549 breast
# CAKI-1 renal = test system: CAKI-1 renal
# CCRF-CEM leukemia = test system: CCRF-CEM leukemia
# COLO 205 colon = test system: COLO 205 colon
# DU-145 prostate = test system: DU-145 prostate
# EKVX NSCLC = test system: EKVX NSCLC
# HCC-2998 colon = test system: HCC-2998 colon
# HCT-116 colon = test system: HCT-116 colon
# HCT-15 colon = test system: HCT-15 colon
# HL-60(TB) leukemia = test system: HL-60(TB) leukemia
# HOP-62 NSCLC = test system: HOP-62 NSCLC
# HOP-92 NSCLC = test system: HOP-92 NSCLC
# HS 578T breast = test system: HS 578T breast
# HT29 colon = test system: HT29 colon
# IGROV1 ovarian = test system: IGROV1 ovarian
# KM12 colon = test system: KM12 colon
# LOX IMVI melanoma = test system: LOX IMVI melanoma
# M14 melanoma = test system: M14 melanoma
# MALME-3M melanoma = test system: MALME-3M melanoma
# MCF7 breast = test system: MCF7 breast
# MDA-MB-231 breast = test system: MDA-MB-231 breast
# MDA-MB-435 = test system: MDA-MB-435
# MOLT-4 leukemia = test system: MOLT-4 leukemia
# NCI-H226 lung = test system: NCI-H226 lung
smiles,measurement,setting,value
O=C(CCCCN1CCOCC1)Nc1ccc(Cn2nnc3c2C(=O)c2nnn(Cc4ccc(NC(=O)CCCCN5CCOCC5)cc4)c2C3=O)cc1,GI50,786-0 renal,1070 nM
same,TGI,786-0 renal,3380 nM
same,GI50,A498 renal,906 nM
same,TGI,A498 renal,1820 nM
same,GI50,A549 NSCLC,397 nM
same,TGI,A549 NSCLC,1110 nM
same,GI50,ACHN renal,758 nM
same,TGI,ACHN renal,1810 nM
same,GI50,BT-549 breast,722 nM
same,TGI,BT-549 breast,1410 nM
same,GI50,CAKI-1 renal,1430 nM
same,TGI,CAKI-1 renal,28200 nM
same,GI50,CCRF-CEM leukemia,271 nM
same,TGI,CCRF-CEM leukemia,2700 nM
same,GI50,COLO 205 colon,95.9 nM
same,TGI,COLO 205 colon,186 nM
same,GI50,DU-145 prostate,459 nM
same,TGI,DU-145 prostate,1050 nM
same,GI50,EKVX NSCLC,776 nM
same,TGI,EKVX NSCLC,1520 nM
same,GI50,HCC-2998 colon,181 nM
same,TGI,HCC-2998 colon,594 nM
same,GI50,HCT-116 colon,160 nM
same,TGI,HCT-116 colon,584 nM
same,GI50,HCT-15 colon,629 nM
same,TGI,HCT-15 colon,1550 nM
same,GI50,HL-60(TB) leukemia,157 nM
same,TGI,HL-60(TB) leukemia,687 nM
same,GI50,HOP-62 NSCLC,745 nM
same,TGI,HOP-62 NSCLC,1490 nM
same,GI50,HOP-92 NSCLC,808 nM
same,TGI,HOP-92 NSCLC,1760 nM
same,GI50,HS 578T breast,1090 nM
same,TGI,HS 578T breast,13800 nM
same,GI50,HT29 colon,178 nM
same,TGI,HT29 colon,837 nM
same,GI50,IGROV1 ovarian,669 nM
same,TGI,IGROV1 ovarian,1460 nM
same,GI50,KM12 colon,574 nM
same,TGI,KM12 colon,1720 nM
same,GI50,LOX IMVI melanoma,115 nM
same,TGI,LOX IMVI melanoma,305 nM
same,GI50,M14 melanoma,264 nM
same,TGI,M14 melanoma,903 nM
same,GI50,MALME-3M melanoma,72 nM
same,TGI,MALME-3M melanoma,163 nM
same,GI50,MCF7 breast,84.9 nM
same,TGI,MCF7 breast,195 nM
same,GI50,MDA-MB-231 breast,199 nM
same,TGI,MDA-MB-231 breast,50000 nM
same,GI50,MDA-MB-435,94.8 nM
same,TGI,MDA-MB-435,170 nM
same,GI50,MOLT-4 leukemia,183 nM
same,TGI,MOLT-4 leukemia,788 nM
same,GI50,NCI-H226 lung,723 nM
